Consider 3 compounds from patent US12600701B2, “N-acylhydrazonic compounds, use in the treatment of amyloid and non-amyloid degenerative aggregopathies, and pharmaceutical composition” (FACULDADES CATÓLICAS, priority 2020, dated 2026).

For series [1], the system named is healthy rats. To be noted: earlier work of the group; cited from earlier work.
The conditions of series [2]: rats, intraperitoneal injection, HPLC detection in brain; earlier work of the group; cited from earlier work.
The nature of series [3]: Stability in aqueous solution containing 1% DMSO (UV-Vis absorption). To be noted: 1% DMSO/water, 5×10^−5 mol L^−1, 17° C., over 4 days. The format is physicochemical. Here is the method:
Stability in aqueous solution containing 1% DMSO: Compounds were prepared at low concentrations (5×10^−5 mol L^−1) in a solution containing 1% DMSO in ultra-pure water. Absorption spectra were obtained between 200 and 800 nm in a molecular absorption spectrophotometer at regular intervals over 12 hours. A final measurement was performed after four days. The room temperature was maintained at 17° C. throughout the experiment.

Series [4] concerns mice with intracerebroventricular infusion of Aβ oligomers. To be noted: earlier work of the group, cited from earlier work.
A short description of series [5]: Experimental octanol-water partition coefficient (log P). The format is physicochemical. The conditions noted are these: octanol / Tris buffer 10^−2 mol L^−1 pH 7.4, 37° C., triplicate. Here is the method: Tris buffer 10^−2 mol L^−1 pH 7.4 was used as the aqueous phase. Both phases were prepared separately, and contained the hydrazone of interest at low concentrations (5×10^−5 mol L^−1). An ultraviolet/visible molecular absorption spectrum was acquired for each of the phases before mixing. The mixture was stirred at 37° C., protected from light. At the end of the incubation, the mixture was centrifuged for 10 minutes at 3000 rpm, and the layers were separated using pipettes. The concentrations in each phase were measured at the wavelength of greatest absorption of each hydrazone in the respective solvent, through calibration curves. Each compound was analyzed in triplicate and P was calculated as the average concentration ratio Co/Ca where Co is the concentration in the organic phase and Ca in the aqueous phase.
Experimental results were obtained using buffer with physiological pH, and the mixing and separation steps were performed at average human body temperature. This gives the experiment greater biological relevance compared to computational calculations. Even so, the values determined are in agreement with those calculated.

The nature of series [6]: Affinity constant for copper(II), Method of Continuous Variations (Job plot). Format: binding. Here is the method:
Affinity constant for copper(II): The affinity constant of compound (IV) for copper(II) was determined using the Method of Continuous Variations, which consists of preparing mixtures of different molar fractions of ligand and metal, followed by measuring their UV-Vis absorbance.
From this information it is possible to calculate the complex formation constant which, for the compound of formula (IV), has a value of 5.66±0.08 at 25° C.

The subject of series [7] is SynT-Sph1 aggregation in H4 cells. In words: Cellular model of α-synuclein (SynT-Sph1) aggregation in H4 cells. Format: cell-based, human. Here is the method: The isoniazid-derived hydrazone of formula (IV) was evaluated in greater detail in a cellular model of α-synuclein aggregation in H4 cells. This model consists of the co-transfection of an α-synuclein construct containing the first 83 amino acids of the EGFP protein linked to its C-terminal portion (SynT) with the synphilin-1 protein (Sph1), resulting in positive inclusions for α-Syn which can be observed by fluorescence microscopy after immunostaining.

Each structure is given as a SMILES string.

For the compound `O=C(NN=Cc1ccc2cccc(O)c2n1)c1ccncc1` [INHHQ, 8-hydroxyquinoline-2-carboxaldehyde isonicotinoyl hydrazone], the acute toxicity result in series [1] is “non-toxic”. In addition, in series [2], the “crossing of the blood-brain barrier” value is listed as “capable of crossing the blood-brain barrier”. Also, in series [3], the “decrease in the intensity of the hydrazonic band” value is on record as “approximately 12%”. Moreover, the “defensive responses related to fear and anxiety” value in series [4] (healthy mice) is listed as “does not alter”. Also, the “short- and long-term memory damage induced by Aβ oligomers” value in series [4] (mice, intracerebroventricular infusion of Aβ oligomers) is “capable of preventing”.
One may read the logP as the decadic logarithm of the partition coefficient of the neutral form, usually between octanol and water. As to `Cn1ccnc1/C=N/NC(=O)c1ccccc1` [(V), 1-methyl-1H-imidazole-2-carboxaldehyde benzoyl hydrazone], in series [5], the lipophilicity (logP) was 1.49 ± 0.13.
Turning to `Cn1ccnc1/C=N/NC(=O)c1ccncc1` [(IV), 1-methyl-1H-imidazole-2-carboxaldehyde isonicotinoyl hydrazone], the “complex formation constant with copper(II)” value in series [6] (ML-type complex (1:1), 25° C.) is reported as 5.66±0.08. Further, the “formation constant compared with clioquinol” value in series [6] (clioquinol under similar conditions) was “approximately one thousand times lower”. The “levels of α-Syn expression” value in series [7] is on record as “does not change”. For the same compound, in series [7] (after treatment), the “morphology of the aggregates” value is “less compact after treatment”. In series [5], this compound returned a logP of 0.67 ± 0.03. Further, in series [3], the “decrease in the intensity of the hydrazonic band” value is on record as “less than 2%”.
